pEC50: −log10 of the molar value.
Key:
[1] = test system: Cisd2 promoter with firefly luciferase reporter; assay: Cisd2-luciferase reporter assay in HEK293-CISD2 cells; type: cell-based; conditions: Homo sapiens, 24 hours incubation, luciferase luminescence
In short: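 HEK293 cells stably carrying Cisd2 promoter-firefly luciferase, seeded at 3×10^3 cells/well, exposed to compounds 24 h at 37 °C; luminescence read after 5 min ONE-Glo at room temperature. EC50 reported in classes: A <1 μM, B 1-5 μM, C 5-10 μM.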

[2] = test system: Cisd2 hKO male mice; assay: In vivo fructose-induced NASH model in Cisd2 hKO mice (histopathology, GTT, ITT); conditions: 0.015 wt % in diet for 5 months
Source text: Compound 28 was used to alleviate nonalcoholic steatohepatitis (NASH) in Cisd2 hKO male mice described above.
Cisd2 hKO were bred for two generations. […] They were fed 30% (w/v) fructose (Alfa Aesar A17718) in water to establish a fructose-induced NASH model. Groups of mice at 2 months old were provided with a diet (AIN93G, TestDiet) containing a vehicle (0.14 wt % of DMF and 0.15 wt % of Cremophor® EL) or Compound 28 (0.015 wt %) for 5 months. The food and drinking water were provided ad libitum.
Histopathology was used to evaluate the efficacy of Compound 28 in alleviating NASH. Liver tissues were processed and stained as described in Example 53 above.
An oral glucose tolerance test (GTT) and an insulin tolerance test (ITT) were performed to study beneficial effects of Compound 28 in the fructose-induced NASH model. In the oral glucose tolerance test, mice were fasted for 14 hours (7 p.m. to 9 a.m.) and then were orally administrated with glucose water (1.5 mg/g body weight) using a feeding needle. Blood samples were collected from tail vein before (0 min) and after glucose treatment at predetermined time points. Blood glucose levels were measured using OneTouch® Ultra glucose test strips and SureStep® Meter (LifeScan). In the insulin tolerance test, mice were fasted for 2 hours (9 a.m. to 11 a.m.) and then intraperitoneally injected with insulin (0.75 U/kg body weight) (Actrapid® human regular insulin, Novo Nordisk). Blood samples were collected and monitored at predetermined time points.

O=C(CS(=O)(=O)c1nccs1)N1Cc2ccccc2C1 [Compound 28, 1-(1,3-dihydro-2H-isoindol-2-yl)-2-(1,3-thiazol-2-ylsulfonyl)ethanone]
pEC50 [1]: > 6.00 | effect on fructose-induced NASH ([2]; Cisd2 hKO male mice, 30% fructose in water, liver histopathology): ameliorate fructose-induced NASH | toxicity ([2]; fructose-induced NASH model): without obvious toxicity | effect on fructose-induced insulin resistance ([2]; insulin tolerance test): alleviate fructose-induced glucose intolerance and insulin resistance | effect on fructose-induced glucose intolerance ([2]; oral glucose tolerance test): alleviate fructose-induced glucose intolerance

— patent publication US11827629B2, “CDGSH iron sulfur domain 2 activators and use thereof” (National Health Research Institutes, priority 2021, dated 2023)
